“And” between values parts separate entries of the source, which are not always exact repeats. Equal values may be shown once.

In this test the test system is P. falciparum 3D7 growth, pLDH absorbance. The experiment in a line: blood-stage malaria parasite growth potency – strain 3D7, dose response (AID 2305).
In turn, `COc1cc2nc(N3CCC(CNC(=O)c4ccc(C(C)=O)cc4)CC3)nc(N)c2cc1OC` registered an IC50 of 1120 nM.
The same measure for `CC(C)(C)c1ccc(CNC(=O)c2ccc(CNC3CCC(N)CC3)s2)cc1` (configuration not stated): 530 nM.
Next, `CCNc1cc(C(=O)N[C@@H](Cc2ccccc2)[C@H](O)CNCCc2cccc3ccccc23)cc(N2CCCC2=O)c1`: 980 nM.
Next, `c1ccc2c(c1)ncc1c3ccccc3[nH]c21`: 870 nM; `Cc1cc(C2CCCCN2C)ccc1-c1ccc(C(=O)N2CCc3cc4c(cc32)C2(CCN(C)CC2)CO4)cc1` (configuration not stated): 790 nM.
Turning to `O=S(=O)(Nc1ccc(CCN2CCC(N3CCCCC3)CC2)cc1)c1ccc2ccccc2c1`, the IC50 is 1010 nM.
`CC(C)N1CCN(C(CN2CCN(CCCOc3cccc4ccccc34)CC2)c2ccc(F)cc2)CC1` (configuration not stated) had an IC50 of 880 nM. The IC50 values of the last two compounds are within 1.5-fold of each other.
Next, `COc1cc(C)cc(CN2CCC(Cc3ccccc3)CC2)c1O`: 1020 nM; `O=C(Cc1cccc2ccccc12)NC1CCN(c2ccnc3cc(Cl)ccc23)C1` (configuration not stated): 250 nM; `Fc1cccc(COc2ccc(Nc3ncnc4sc(C#CCNC5CCC5)cc34)cc2Cl)c1`: 870 nM.
In turn, `Cc1cc(N2CCC(NS(=O)(=O)c3ccc(F)cc3)CC2)nc(Nc2cccc(C#N)c2)n1` showed an IC50 of 650 nM.
Consider `Cc1cc(N[C@@H](CC(C)C)C(=O)Nc2ccccc2)nc(NCC2CCCCC2)n1`, for which the IC50 amounted to 870 nM.
The same measure for `CN(C)Cc1cccc(-c2ccc(NC(=O)c3ccc4c(=O)n(CCN5CCCCC5)cnc4c3)cc2)c1`: 650 nM; for `Cc1cccc2[nH]c(-c3cccc(-c4ccc(NC(=O)C(C)(C)c5ccccn5)cc4)c3)nc12`: 690 nM; for `Cc1cc(C(=O)NCc2ccc(-c3c(C)noc3C)cc2)n(-c2ccccc2)n1`: 820 nM.
Next, `CS(=O)(=O)Nc1ccc2[nH]cc(C3CCN(CC4CCN(C(=O)/C=C/c5ccc(Cl)c(Cl)c5)CC4)CC3)c2c1`: 720 nM; `NC(=O)c1cnc2ccc(-c3cncs3)cc2c1Nc1ccc(F)c(Cl)c1`: 180 nM.
Next, `Cc1ccc(C2CCN(CCCCNC(=O)c3ccc(NC(=O)c4ccc(Cl)cc4)cc3)CC2)c(C)c1`: 840 nM.
The compound `COc1cccc(NC(=O)NC2CCN(c3ccnc(Nc4cc(OC)c(OC)c(OC)c4)n3)C2)c1` (configuration not stated) registered a concentration for half-maximal inhibition (IC50) of 860 nM.
Turning to `CCCCCCC(C)c1cc(O)c2c(c1)OC(=O)CC2(CC)c1ccccn1` (configuration not stated), the IC50 amounted to 330 nM.
Next, `Cc1cc(NN=Cc2ccccc2[N+](=O)[O-])c2ccc(F)cc2n1`: 350 nM.
As to `Cc1ccc2c(c1)C1(CC(=O)N(CCc3scnc3C)C1=O)C(=O)N2Cc1ccccc1` (configuration not stated), the IC50 was found to be 1250 nM. This IC50 lies about 3.6-fold higher than the previous one.
`C=C[C@H]1CN2CC[C@H]1C[C@H]2[C@H](OS(=O)(=O)O)c1ccnc2ccccc12`: the IC50 is 620 nM.
Next, `COc1ccc2ccccc2c1CON1C(N)=NC(N)=NC1(C)C`: 30 nM.
`O=C(NC1CCCc2ccccc21)[C@@H]1CCCN1C(=O)c1ccc(O)c(-c2cccc([N+](=O)[O-])c2)c1` (some centres not stated) came in with an IC50 of 680 nM. Compared with the last compound, the IC50 is about 23-fold higher.
Regarding `Cc1cc(N2CCCC2)nc(Nc2ccc(NC(=O)c3cccc(F)c3)cc2)n1`, the IC50 was determined as 180 nM.
The same measure for `COc1ccc2nccc(NCC3(O)CCC(NCc4ccc5c(n4)NC(=O)CS5)CC3)c2n1` (configuration not stated): 690 nM; for `CN1CCN(Cc2ccc(-c3ccc4ncnc(Nc5ccc(OCc6ccccc6)cc5)c4c3)o2)CC1`: 690 nM; for `CCN(CC)CCON=Cc1cc(C)c2[nH]c3ccc(OCc4ccccc4)cc3c2c1C`: 970 nM.
The same measure for `CCC(O)(C#Cc1c(C)nc(N)nc1N)CC`: 640 nM.
Compound `Cc1cccc2[nH]c(-c3ccc(-c4ccc(CNCc5cnn(-c6ccccc6)n5)cc4)cc3)nc12` displayed an IC50 of 430 nM. This IC50 and that of the compound before are within 1.5-fold of each other.
In the case of `NC(=O)c1ccc(NC(=O)CN(Cc2ccc(Cl)cc2)S(=O)(=O)c2ccccc2)cc1`, the IC50 was 650 nM.
The same measure for `Cc1cc(-c2ccc(NC(=O)N3CCc4cc(Br)c(N5CCN(C)CC5)cc43)cc2)ccc1C#N`: 880 nM; for `CCCCNCc1ccc(-c2nc(CN(CCCn3ccnc3)C(=O)C3COc4ccccc4O3)cs2)cc1` (configuration not stated): 890 nM; for `Cc1ccc(C)c(C=CC(=O)NC2CCC(CN3CCC(c4c[nH]c5ccccc45)CC3)CC2)c1` (configuration not stated): 760 nM and 700 nM.
The same measure for `CCCN(CCCCNC(=O)c1ccc(-c2cccnc2)cc1)C1CCc2c(O)cccc2C1` (configuration not stated): 1120 nM; for `CN(C)CCCc1cc2c(cc1Cl)CCN2C(=O)Nc1ccc(-c2ccncc2)c2ccccc12`: 1180 nM; for `CCn1c(Sc2ccc([N+](=O)[O-])c(C#N)c2)nnc1-c1cccc(Cl)c1`: 870 nM.
In turn, `CC(C)(C)C1CC(=O)C[C@@H]2C(=O)N(C3CCCCC3)C(=O)[C@H]12` (some centres not stated) had a half-inhibitory concentration (IC50) of 420 nM.
The same measure for `COc1ccc(NC(=O)NC2CCN(CCCCCNC(=O)/C=C/c3ccc(Cl)c(Cl)c3)C2)c(OC)c1` (configuration not stated): 820 nM.
The same measure for `CNCc1cccc2[nH]c(-c3csc(Cc4cc(Cl)ccc4OCC(C)C)n3)nc12`: 720 nM.
As for `Cc1noc(C)c1-c1cccc(CNCc2ccc(-c3ccc(-c4nc5ccc(F)cc5[nH]4)s3)cc2)c1`, the IC50 was 420 nM.

Source of the values: PubChem BioAssay AID2305 (GlaxoSmithKline (GSK), 2010).
